This is an account of results in patent US20070089847A1, “Anti-microbial paper products having a substituted 1,2-dihydroquinoline” (Novus International, Inc., priority 2005, published 2007).

Counter-ions that a name gives are not always drawn. Bounds are passed on as bounds.

This assay has as its system Aspergillus niger ATCC 9642 and Aspergillus flavus ATCC 9643. Briefly: In vitro disk assay of antifungal properties, agar plates containing test agent (Example 3). In kind it is cell-based. To be noted: 48 hours at 25° C. As to the method:
In this assay, paper disks were soaked in a fungal solution and placed on the surface of agar plates containing different concentration of the test agent. The radius of fungal growth radiating from each disk was considered indicative of the degree of inhibition by the agent relative to a control.
The test agents were diluted in DMSO or water and tested at several different concentrations. The test agents were added to the agar solution after sterilization, but prior to solidification. […] The plates were incubated for 48 hours at 25° C. The zones of fungal growth (or no growth) were analyzed and the minimum total inhibitory concentration (%) was estimated for each agent.
In the case of `CSCCC(O)C(=O)O` (centres unmarked) [2-hydroxy-4(methylthio)butanoic acid], the “Minimum Total Inhibitory Concentration (%)” value is listed as more than 0.5%.
`CC(=O)C(C)O` (centres unmarked) [3-Hydroxy-2-Butanone]: the “Minimum Total Inhibitory Concentration (%)” value is listed as more than 0.5%.
As for `O=C(O)CCO` [3-Hydroxypropionic Acid], the figure is more than 0.5%; as for `CC=O` [Acetaldehyde], more than 0.2%.
Next, `CC(=O)O` [Acetic Acid]: 0.2%; `O=C(O)CCCCC(=O)O` [Adipic Acid]: more than 0.5%.
As for `O=C(O)CCCCC1CCSS1` (stereo not drawn) [Alpha Lipoic Acid], the “Minimum Total Inhibitory Concentration (%)” value is given as 0.1%.
As to `CC(=O)Oc1c(C)c(C)c2c(c1C)CCC(C)(CCC[C@H](C)CCC[C@H](C)CCCC(C)C)O2` (stereo partly drawn) [Alpha Tocopherol Acetate], the “Minimum Total Inhibitory Concentration (%)” value was more than 0.5%.
Regarding `Cc1c(C)c2c(c(C)c1O)CC[C@@](C)(CCC[C@H](C)CCC[C@H](C)CCCC(C)C)O2` [Alpha Tocopherol], the “Minimum Total Inhibitory Concentration (%)” value is recorded as more than 0.5%.
With `O=C1O[C@H]([C@@H](O)CO)C(O)=C1O` [Ascorbic Acid], the “Minimum Total Inhibitory Concentration (%)” value was more than 0.5%.
Consider `CCCCCCCCCCCCCCCC(=O)OC[C@H](O)[C@H]1OC(=O)C(O)=C1O` [Ascorbyl Palmitate], for which the “Minimum Total Inhibitory Concentration (%)” value is on record as more than 0.5%.
Next, `COc1ccc(O)c(C(C)(C)C)c1` [BHA (Butylated HydroxyAnisole), Butylated HydroxyAnisole]: 0.025%; `Cc1cc(C(C)(C)C)c(O)c(C(C)(C)C)c1` [BHT (Butylated HydroxyToluene), Butylated HydroxyToluene]: more than 0.5%.
Next, `O=Cc1ccccc1` [Benzaldehyde]: 0.5%; `O=C(O)c1ccccc1` [Benzoic Acid]: 0.1%.
As for `O=C1CCO1` [Beta-Propiolactone], the figure is 0.1%; as for `OB(O)O` [Boric Acid], 0.5%.
Take `CCCC(=O)O` [Butyric Acid]: the “Minimum Total Inhibitory Concentration (%)” value is listed as 0.2%.
As for `CC(=O)[O-].CC(=O)[O-].[Ca+2]` [Calcium Acetate], the figure is more than 0.5%.
Next, `CCC(=O)[O-].CCC(=O)[O-].[Ca+2]` [Calcium Propionate]: more than 0.5%; `C=C(C)C1CC=C(C)C(=O)C1` (centres unmarked) [Carvone]: 0.1%; `O=CC=Cc1ccccc1` [Cinnamaldehyde]: less than 0.005%.
Next, `CC(C)=CCCC(C)=CC=O` [Citral]: 0.1%; `O=C(O)CC(O)(CC(=O)O)C(=O)O` [Citric Acid]: more than 0.5%; `O=S(=O)([O-])[O-].[Cu+2]` [Copper Sulfate]: 0.05%.
As for `N[C@@H](CS)C(=O)O` [Cysteine], the “Minimum Total Inhibitory Concentration (%)” value is listed as more than 0.5%.
Next, `CCCCCCCCCC=O` [Decanal]: more than 0.5%; `CC(=O)C1C(=O)C=C(C)OC1=O` (centres unmarked) [Dehydroacetic Acid]: 0.01%.
Next, `Cc1cc(O)cc2c1O[C@](C)(CCC[C@H](C)CCC[C@H](C)CCCC(C)C)CC2` [Delta Tocopherol]: more than 0.5%; `CC(=O)C(C)=O` [Diacetyl]: 0.1%.
As for `CCCCCCCCCCCCOC(=O)CCSCCC(=O)OCCCCCCCCCCCC` [Dilauryl Thiodipropionate], the figure is more than 0.5%.
`CCCCCCCCCCCCOC(=O)c1cc(O)c(O)c(O)c1` [Dodecyl Gallate]: the “Minimum Total Inhibitory Concentration (%)” value was more than 0.5%.
With `O=C(O)CN(CCN(CC(=O)O)CC(=O)O)CC(=O)O` [EDTA], the “Minimum Total Inhibitory Concentration (%)” value is given as 0.02%.
In the case of `CCO` [Ethanol], the “Minimum Total Inhibitory Concentration (%)” value is more than 0.5%.
Next, `C=CCc1ccc(O)c(OC)c1` [Eugenol]: 0.05%; `O=C(O)/C=C/C(=O)O` [Fumaric Acid]: more than 0.5%; `O=C(O)c1cc(O)c(O)c(O)c1` [Gallic Acid]: more than 0.5%.
Regarding `O=C(O)[C@H](O)[C@@H](O)[C@H](O)[C@H](O)CO` [Gluconic Acid], the “Minimum Total Inhibitory Concentration (%)” value is listed as more than 0.5%.
Consider `NCC(=O)O` [Glycine], for which the “Minimum Total Inhibitory Concentration (%)” value is reported as more than 0.5%.
As for `O=C(O)CO` [Glycolic Acid], the figure is more than 0.5%.
As for `Cl` [HCl], the figure is 0.5%.
As to `CCCCCCCCCCCCCCCC[n+]1ccccc1.[Cl-]` [Hexadecylpyridinium Cl], the “Minimum Total Inhibitory Concentration (%)” value is on record as 0.2%.
Take `OO` [Hydrogen Peroxide]: the “Minimum Total Inhibitory Concentration (%)” value is on record as 0.1%.
Next, `CC(O)C(=O)O` (centres unmarked) [Lactic Acid]: more than 0.5%; `C=C(C)[C@H]1CC=C(C)CC1` [Limonene]: more than 0.5%; `NCCCC[C@H](N)C(=O)O` [Lysine]: more than 0.5%.
As to `O=C(O)/C=C\C(=O)O` [Maleic Acid], the “Minimum Total Inhibitory Concentration (%)” value came to 0.5%.
Next, `O=C(O)CC(=O)O` [Malonic Acid]: more than 0.5%; `CSCC[C@H](N)C(=O)O` [Methionine]: more than 0.5%; `COC(=O)c1ccc(O)cc1` [Methyl Paraben]: 0.5%.
For `CCCCCCCCOC(=O)c1cc(O)c(O)c(O)c1` [Octyl Gallate], the “Minimum Total Inhibitory Concentration (%)” value is more than 0.5%.
As for `O=P(O)(O)O` [Phosphoric Acid], the figure is 0.5%; as for `O=Cc1ccc2c(c1)OCO2` [Piperonal], 0.1%; as for `CC(=O)[O-].[K+]` [Potassium Acetate], more than 0.5%.
For the molecule `O=C([O-])c1ccccc1.[K+]` [Potassium Benzoate], the “Minimum Total Inhibitory Concentration (%)” value is listed as more than 0.5%.
As for `C/C=C/C=C/C(=O)[O-].[K+]` [Potassium Sorbate], the figure is more than 0.5%; as for `CCC(=O)O` [Proprionic Acid], 0.2%.
As for `CCCOC(=O)c1cc(O)c(O)c(O)c1` [Propyl Gallate], the figure is more than 0.5%; as for `CCCOC(=O)c1ccc(O)cc1` [Propyl Paraben], 0.015%; as for `CC(=O)[O-].[Na+]` [Sodium Acetate], more than 0.5%.
As for `O=C([O-])c1ccccc1.[Na+]` [Sodium Benzoate], the figure is more than 0.5%; as for `O=S([O-])O.[Na+]` [Sodium Bisulfite], 0.2%.
Turning to `O=C([O-])CC(O)(CC(=O)[O-])C(=O)[O-].[Na+].[Na+].[Na+]` [Sodium Citrate], the “Minimum Total Inhibitory Concentration (%)” value is more than 0.5%.
Consider `CC(=O)O.CC(=O)[O-].[Na+]` [Sodium Diacetate], for which the “Minimum Total Inhibitory Concentration (%)” value was 0.5%.
Consider `O=C([O-])[C@H](O)[C@@H](O)[C@H](O)[C@H](O)CO.[Na+]` [Sodium Gluconate], for which the “Minimum Total Inhibitory Concentration (%)” value is reported as more than 0.5%.
On to `O=P1([O-])OP(=O)([O-])OP(=O)([O-])OP(=O)([O-])OP(=O)([O-])OP(=O)([O-])O1.[Na+].[Na+].[Na+].[Na+].[Na+].[Na+]` [Sodium Hexametaphosphate], for which the “Minimum Total Inhibitory Concentration (%)” value is listed as more than 0.5%.
As for `CC(O)C(=O)[O-].[Na+]` (centres unmarked) [Sodium Lactate], the figure is more than 0.5%; as for `O=S([O-])S(=O)(=O)[O-].[Na+].[Na+]` [Sodium Metabisulfite], 0.1%; as for `CCC(=O)[O-].[Na+]` [Sodium Proprionate], more than 0.5%.
In the case of `O=P([O-])([O-])OP(=O)([O-])[O-].[Na+].[Na+].[Na+].[Na+]` [Sodium Pyrophosphate], the “Minimum Total Inhibitory Concentration (%)” value was more than 0.5%.
As for `O=S([O-])[O-].[Na+].[Na+]` [Sodium Sulfite], the figure is more than 0.5%.
As for `O=S([O-])([O-])=S.[Na+].[Na+]` [Sodium Thiosulfate], the figure is more than 0.5%; as for `O=P([O-])(O)O.[Na+]` [Sodium bi-Phosphate], more than 0.5%; as for `O=S(=O)(O)O` [Sulfuric Acid], 0.1%.
As to `CC(C)(C)c1cc(O)ccc1O` [TBHQ (Tert-ButylHydroQuinone), Tert-ButylHydroQuinone], the “Minimum Total Inhibitory Concentration (%)” value was 0.1%.
Consider `O=C(O)C(O)C(O)C(=O)O` (centres unmarked) [Tartaric Acid], for which the “Minimum Total Inhibitory Concentration (%)” value is recorded as more than 0.5%.
As to `N[C@@H](Cc1c[nH]c2ccccc12)C(=O)O` [Tryptophan], the “Minimum Total Inhibitory Concentration (%)” value is listed as more than 0.5%.
As for `CCCCC(=O)O` [Valeric Acid], the figure is 0.1%; as for `COc1cc(C=O)ccc1O` [Vanillin], 0.1%.
As for Stearyl Citrate, the figure is more than 0.5%.
